This note sets out measurements from patent publication US9644010B2, “LY6K epitope peptides for TH1 cells and vaccines containing the same” (ONCOTHERAPY SCIENCE, INC., priority 2012, dated 2017).

Assay type in all cases: cell-based, human
Test [1] deals with LY6K-A24 (177-186) SP-specific CTLs. The test can be described thus: Propagation of LY6K-A24 (177-186) SP specific CTLs by stimulation with LY6K-LPs in HNMT patients. As to the method: PBMCs from 11 HNMT patients vaccinated with LY6K-A24 (177-186) SP were cultured with a mixture of LY6K (119-142) LP and LY6K (172-191) LP (10 micro-g/mL each) in a 24-well plate (2×10^6/well); rhIL-2 (20 IU/mL) and rhIL-7 (5 ng/mL) were added on day 0 and day 2. On day 0 (ex vivo) and day 7, the PBMCs were stained with a PE-labeled tetramer of the HLA-A*24:02/LY6K-A24 (177-186)-complex (MBL, Nagoya, Japan) with a FITC-labeled anti-human CD8 mAb.
Expression of LY6K-A24 (177-186) SP specific T cell receptor (TCR) was examined on a FACSCalibur (BD Biosciences) using a PE-labeled tetramer of the HLA-A*24:02/LY6K-A24 (177-186) SP complex (MBL, Nagoya, Japan) according to the manufacturer's instructions. A PE-labeled tetramer of the HLA-A*24:02/HIV-A24 (RYLRDQQLL: SEQ ID NO: 4) complex was used as a negative control.
PBMCs from 5 HNMT patients vaccinated with LY6K-A24 (177-186) SP were cultured with LY6K (172-191) LP (10 micro-g/mL each) in a 96-well plate (1×10^5/well); rhIL-2 (20 IU/mL) and rhIL-7 (5 ng/mL) were added on day 0 and day 2. On day 0 (ex vivo) and day 7, the PBMCs were stained with a PE-labeled tetramer of the HLA-A*24:02/LY6K-A24 (177-186)-complex with a FITC-labeled anti-human CD8 mAb.

For test [2], the system named is LY6K-specific CD4^+ Th cells. The test can be described thus: Cytokine assays (Bio-Plex) of peptide-specific Th cells. The settings on record: Th-clone from HDL4; autologous PBMCs with cognate peptide, 24 h. As to the method: T cells (1×10^4/well) were cultured with L-DP5 (5×10^4/well) in the presence of LY6K (119-142) in 96-well culture plate. After 20 h, culture supernatants were collected and cytokine (IFN-gamma, GM-CSF, TNF-alpha, MIP1beta, IL-2, IL-4, IL-17) level was measured using the Bio-Plex system (Bio-Rad) according to manufacturers' instructions.
LY6K (119-142) LP-specific bulk Th cells (3×10^4 cells/well) and the LY6K (172-191) LP-specific Th cell clone (Th-clone, 1×10^4 cells/well) were cultured with autologous PBMCs (3×10^4 cells/well) in the presence of cognate peptide in 96-well culture plates. After 24 h, culture supernatants were collected and cytokine (IL-2, IFN-gamma, GM-CSF, TNF-alpha, and MIP1beta) levels were measured using the Bio-Plex system (Bio-Rad) according to manufacturer's instructions.

For test [3], the system named is LY6K-specific T cells in PBMCs. The test can be described thus: Assessment of LY6K-specific CD4+ T cell responses in head and neck cancer patients, IFN-gamma ELISPOT after 1 week stimulation of PBMCs with LPs. The protocol: Two phase I clinical trials of peptide-based cancer immunotherapy were reviewed and approved by the Institutional Review Board of Kumamoto University, Kumamoto, Japan (approval no. 841 and 1124). […] Tumor stage and grading were determined according to the International Union against cancer (UICC) clarification. The patients suffered from inoperable advanced head and neck cancer with recurrent or metastatic tumors who had been resistant to standard therapy were enrolled in one trial (841). The patients suffered from operable advanced head and neck cancer were enrolled in another trial (1124). These patients in this trial (1124) had been treated with postoperative peptide-vaccine immunotherapy. The patients suffered from inoperable advanced HNMT with recurrent or metastatic tumors and were resistant to standard therapy; they were enrolled in the trial under University Hospital Medical Information Network Clinical Trials Registry (UMIN-CTR) number 000008379 (CTR-8379). HNMT patients with radical resection were enrolled in the trial under UMIN-CTR number 000008380 (CTR-8380). In the latter trial, HNMT patients were treated with postoperative peptide vaccine combined with S-1, ifosfamide, or doxorubicin. […]
The PBMCs from cancer patients or healthy donors were cultured with 10 micro-g/ml of mixture of LY6K-derived LPs in a 24-well plate (2×10^6/well) in AIM-V supplemented with 5% human decomplemented plasma and IL-7 and IL-2 were added at day 0 and day 2. After 1 week of cell culture, the PBMCs were collected and the presence of LY6K-specific T cells was measured by IFN-gamma ELISPOT assays. […] The number of specific T cells expressed as spot-forming cells/10^5 cells was calculated after subtracting negative control values (background). […] Responses were evaluated to be positive when IFN-gamma were more than 10 and more than 2-fold the background. […] And responses were evaluated to be positive when IFN-gamma were more than 15 and more than 2-fold the background. […]

With KCCKIRYCNLEGPPINSSVF [LY6K (172-191)], the “frequency of LY6K-A24 (177-186)-specific CTLs (tetramer+ cells)” value in test [1] (HNMT108 PBMCs, day 7 after stimulation with LP 10 micro-g/mL (ex vivo day 0: 0.05%)) was 0.35 % of CD8^+ T-cells. For the same sequence, the “expansion of LY6K-A24 (177-186) SP-specific CTL (tetramer)” value in test [1] (PBMC of a head and neck cancer patient immunized with LY6K-A24 (177-186) SP, one week in vitro stimulation with LP) is listed as “significantly expanded”. The “HNMT patients after vaccination with increase of proportion of tetramer+ CD8+ cells more than 2 times” value in test [1] (PBMCs cultured 1 week with LY6K (172-191) LP 10 micro-g/mL) is reported as 4 of 5. The “cytokine production (IFN-gamma, TNF-alpha, IL-2, GM-CSF, MIP1beta) by LP-specific Th-clone” value in test [2] is “large amount”. In addition, in test [3] (FIG. 8D, Mann-Whitney U test), the “number of LP-specific spots in vaccinated patients compared with HNMT patients before vaccination” value is “significantly larger” and the “numbers of specific IFN-gamma spots in vaccinated patients compared with healthy donors” value is on record as “significantly larger”. The “frequency of LP-specific immune response in HNMT patients after vaccination compared with before vaccination” value in test [3] (FIG. 8E, Fisher's exact probability test) was “significantly higher”.
